Test results taken from US10770169B2, “Method of providing a treatment to a subject based on a dynamic pathway map” (THE REGENTS OF THE UNIVERSITY OF CALIFORNIA, priority 2010, dated 2020).

Test system: panel of 55 breast cancer cell lines
Experiment: Cell growth inhibition assay (Cell Titer Glo, 72 h, 9 doses; GI50, TGI, LC50)
Type: cell-based, human
Details: value is the negative log10 of mol/L
[1] = AU565 cell line, censored GI50 values
[2] = BT474 cell line, censored GI50 values
[3] = BT483 cell line, censored GI50 values
[4] = CAMA1 cell line, censored GI50 values
[5] = HCC38 cell line, censored GI50 values
[6] = HCC70 cell line, censored GI50 values
[7] = HCC1143 cell line, censored GI50 values
[8] = HCC1187 cell line, censored GI50 values
[9] = HCC1395 cell line, censored GI50 values
[10] = HCC1419 cell line, censored GI50 values
[11] = HCC1428 cell line, censored GI50 values
[12] = HCC1500 cell line, censored GI50 values
[13] = HCC1806 cell line, censored GI50 values
[14] = HCC1937 cell line, censored GI50 values
[15] = HCC1954 cell line, censored GI50 values
[16] = HCC2185 cell line, censored GI50 values
[17] = HCC3153 cell line, censored GI50 values
[18] = MCF7 cell line, censored GI50 values
[19] = MDAMB134VI cell line, censored GI50 values
[20] = MDAMB157 cell line, censored GI50 values
[21] = MDAMB175VII cell line, censored GI50 values
[22] = MDAMB231 cell line, censored GI50 values
[23] = MDAMB361 cell line, censored GI50 values
[24] = MDAMB415 cell line, censored GI50 values
[25] = MDAMB436 cell line, censored GI50 values
[26] = MDAMB453 cell line, censored GI50 values
[27] = MDAMB468 cell line, censored GI50 values
[28] = SKBR3 cell line, censored GI50 values
[29] = SUM149PT cell line, censored GI50 values
[30] = SUM159PT cell line, censored GI50 values
[31] = SUM185PE cell line, censored GI50 values
[32] = SUM1315MO2 cell line, censored GI50 values

## C[C@@H](Oc1cc(-n2cnc3ccc(CN4CCN(C)CC4)cc32)sc1C(N)=O)c1ccccc1C(F)(F)F [GSK461364A]
600MPE cell line, censored GI50 values
  GI50: 5.16
[1]
  GI50: 8.35
[2]
  GI50: 5.07
[3]
  GI50: 5.35
[4]
  GI50: 5.17
[5]
  GI50: 7.42
[6]
  GI50: 7.01
[7]
  GI50: 7.13
[8]
  GI50: 7.48
[9]
  GI50: 8.31
[10]
  GI50: 5.12
[11]
  GI50: 5.26
[12]
  GI50: 7.89
[13]
  GI50: 7.95
[14]
  GI50: 7.51
[15]
  GI50: 8.16
[16]
  GI50: 8.26
[17]
  GI50: 7.50
[18]
  GI50: 7.82
[19]
  GI50: 7.83
[20]
  GI50: 8.98
[21]
  GI50: 5.21
[22]
  GI50: 7.68
[23]
  GI50: 8.72
[24]
  GI50: 7.08
[25]
  GI50: 7.90
[26]
  GI50: 7.97
[27]
  GI50: 8.41
[28]
  GI50: 7.78
[29]
  GI50: 7.72
[30]
  GI50: 7.49
[31]
  GI50: 5.66
[32]
  GI50: 7.51
Cell line 600MPE
  GI50: 5.16
Cell line AU565
  GI50: 8.35

## CC(C)Oc1ccc(C(=O)N[C@H](CNC(=O)CN(C)C)Cc2ccc(-c3cn4cccc([C@H](C)O)c4n3)cc2)cc1Cl [GSK923295]
[1]
  GI50: 7.62
[2]
  GI50: 5.42
[3]
  GI50: 6.44
[4]
  GI50: 7.33
[5]
  GI50: 7.32
[6]
  GI50: 7.68
HCC202 cell line, censored GI50 values
  GI50: 7.77
[7]
  GI50: 6.77
[8]
  GI50: 7.52
[9]
  GI50: 7.33
[10]
  GI50: 5.72
[11]
  GI50: 5.21
[12]
  GI50: 7.28
[13]
  GI50: 7.34
[14]
  GI50: 7.20
[15]
  GI50: 7.62
[16]
  GI50: 7.43
[17]
  GI50: 7.22
[18]
  GI50: 5.90
[19]
  GI50: 5.50
[20]
  GI50: 7.50
[21]
  GI50: 6.76
[22]
  GI50: 7.34
[23]
  GI50: 7.42
[24]
  GI50: 7.28
[25]
  GI50: 7.59
[26]
  GI50: 6.96
[27]
  GI50: 7.61
[28]
  GI50: 7.34
[29]
  GI50: 7.17
[30]
  GI50: 7.43
[31]
  GI50: 5.42
[32]
  GI50: 7.44
Cell line 600MPE
  GI50: 4.48
Cell line AU565
  GI50: 7.62
Cell line BT474
  GI50: 5.42
Cell line BT483
  GI50: 6.44
Cell line CAMA1
  GI50: 7.33
Cell line HCC38
  GI50: 7.32
Cell line HCC70
  GI50: 7.68
Cell line HCC202
  GI50: 7.77
Cell line HCC1143
  GI50: 6.77
Cell line HCC1187
  GI50: 7.52
Cell line HCC1395
  GI50: 7.33
Cell line HCC1419
  GI50: 5.72
Cell line HCC1428
  GI50: 5.21
Cell line HCC1500
  GI50: 7.28
Cell line HCC1806
  GI50: 7.34
Cell line HCC1937
  GI50: 7.20
Cell line HCC1954
  GI50: 7.62
Cell line HCC2185
  GI50: 7.43
Cell line HCC3153
  GI50: 7.22
Cell line MCF7
  GI50: 5.90
Cell line MDAMB134V
  GI50: 5.50
Cell line MDAMB157
  GI50: 7.50
Cell line MDAMB175V
  GI50: 6.76
Cell line MDAMB231
  GI50: 7.34
Cell line MDAMB361
  GI50: 7.42
Cell line MDAMB415
  GI50: 7.28
Cell line MDAMB436
  GI50: 7.59
Cell line MDAMB453
  GI50: 6.96
Cell line MDAMB468
  GI50: 7.61
Cell line SKBR3
  GI50: 7.34
Cell line SUM52PE
  GI50: 7.64
Cell line SUM149PT
  GI50: 7.17
Cell line SUM159PT
  GI50: 7.43
Cell line SUM185PE
  GI50: 5.42
Cell line SUM1315MO
  GI50: 7.44
Cell line UACC812
  GI50: 7.92
Cell line UACC893
  GI50: 7.91
Cell line ZR75B
  GI50: 7.15
Cell line ZR751
  GI50: 6.92
Cell line ZR7530
  GI50: 7.68
